# Test results: US20160322588A1, “Organic Transistor, Compound, Organic Semiconductor Material for Non-Light-Emitting Organic Semiconductor Device, Material for Organic Transistor, Coating Solution for Non-Light-Emitting Organic Semiconductor Device, and Organic Semiconductor Film for Non-Light-Emitting Organic Semiconductor Device” (FUJIFILM Corporation, priority 2014, published 2016)
# Experiment: Solubility in toluene
# Type: physicochemical
# Conditions: 20 mg mixed with toluene (1 mL)
# From the text: B: Incompletely dissolved.
row,Compound,Solubility
1,CCCCCCCCC#Cc1cc2ccc3c(sc4c5ccc6cc(C#CCCCCCCCC)sc6c5sc34)c2s1 [Compound 29],A (Completely dissolved.)
2,CCCCCCCCCCCCCCc1cc2ccsc2c2sc3c(sc4c5sccc5cc(CCCCCCCCCCCCCC)c43)c12 [Compound 39],A (Completely dissolved.)
3,CCCCCCCCCCCCCCc1cc2sccc2c2sc3c(sc4c5ccsc5cc(CCCCCCCCCCCCCC)c43)c12 [Compound 40],A (Completely dissolved.)
4,CCCCCCCCc1cc2ccc3c(sc4c5ccc6cc(CCCCCCCC)sc6c5sc34)c2s1 [Compound 1],A (Completely dissolved.)
5,CCCCCCCCC#Cc1cc2c(ccc3c2sc2c4ccc5sc(C#CCCCCCCCC)cc5c4sc32)s1 [Compound 30],A (Completely dissolved.)
6,CCCCCCCCCCCCc1cc2c(ccc3c2sc2c4ccc5sc(CCCCCCCCCCCC)cc5c4sc32)s1 [Compound 4],A (Completely dissolved.)
7,CCCCCCCCOc1cc2c(ccc3c2sc2c4ccc5sc(OCCCCCCCC)cc5c4sc32)s1 [Compound 38],A (Completely dissolved.)
8,CCCCCCCCCCCCc1cc2ccc3c(sc4c5ccc6cc(CCCCCCCCCCCC)sc6c5sc34)c2s1 [Compound 3],A (Completely dissolved.)
9,CCCCCCCCOc1cc2ccc3c(sc4c5ccc6cc(OCCCCCCCC)sc6c5sc34)c2s1 [Compound 37],A (Completely dissolved.)
10,CCCCCCCCc1cc2c(ccc3c2sc2c4ccc5sc(CCCCCCCC)cc5c4sc32)s1 [Compound 2],A (Completely dissolved.)
11,CCCCCCCCc1cc2ccc3c(sc4c5ccc6ccsc6c5sc34)c2s1 [Compound 43],A (Completely dissolved.)
12,CCCCCCCCc1cc2c(ccc3c2sc2c4ccc5sccc5c4sc32)s1 [Compound 44],A (Completely dissolved.)

# Same assay, conditions: organic solvent or mixture, thermodynamic from solid; 20 mg mixed with toluene (1 mL); read-out: Solubility
row,Compound,Solubility
1,"Cn1ccc2c3sc4c5ccc6c(ccn6C)c5sc4c3ccc21 [compound 1, reference compound]",< 20 mg/mL
2,"CCc1cc2cc3c(cc2s1)sc1c2cc4cc(CC)sc4cc2sc31 [compound 2, reference compound]",< 20 mg/mL
3,"c1cc2cc3sc4c5cc6sccc6cc5sc4c3cc2s1 [compound 4, reference compound]",< 20 mg/mL
4,"CCCC(C)n1ccc2c3sc4c5ccc6c(ccn6C(C)CCC)c5sc4c3ccc21 (centres unmarked) [compound 3, reference compound]",< 20 mg/mL
5,CC(C)CCCC(C)CCc1cc2ccc3c(sc4c5ccc6cc(CCC(C)CCCC(C)C)sc6c5sc34)c2s1 (centres unmarked) [Compound 5],> 20 mg/mL
